According to paper PMC12891993, “Bio-orthogonal chemistry-based strategy to Turn-OFF CRISPR-Cas9 activity in solution and live cells” (NAR Molecular Medicine, 2026):
Residues, ends and D or L forms follow the SMILES beside them. *: point of attachment. X1 = O=C(COC1CC/C=C/CCC1)*

What was measured:
Format in all cases: cell-based
HEK293 cells = assay: Assessment of cell permeability of TCO-modified CRISPR suppressors with OG-Tz fluorescent probe; details: suppressor 30 μM 3 h, then OG-Tz 50 μM 2 h; for cellular fluorescence in the Oregon Green channel: confocal microscopy; for cell permeability: microscopy, confirmed by flow cytometry
Protocol: The studies were carried out using the previously reported OG-Tz fluorescent probe. The chemical structure of OG-Tz is shown in Supplementary Fig. S7. OG-Tz was synthesized using the procedure reported by Devaraj and co-workers. The HEK293 cells were cultured in DMEM, containing 10% FBS and 1X Penicillin/Streptomycin, at 37°C, 5% CO2, and 95% humidity. The cells were seeded at a concentration of 1 × 10^5 cells per well in a six-well plate 24 h prior to the experiment. The cells were treated with the TCO-modified CRISPR suppressors (30 μM) for 3 h. Then, the media was replaced, and the cells were treated with OG-Tz (50 μM) for 2h. Afterwards, the cells were treated with trypsin for 5 min, collected by centrifugation at 1000 RPM, and suspended in PBS (1 mL). GFP expression was analyzed by flow cytometry. Data from 10^6 cells were acquired using a FACS Aria III cell sorter equipped with a 488 nm/blue coherent sapphire solid-state laser, 20 mW (BD Biosciences, San Jose, CA, USA). Data analyses were carried out using FlowJo software (Ashland, OR, USA), according to the manufacturer’s instructions. Parameters, such as MFI and the percentages of specific populations, were quantified by histogram analysis.
HEK293 cells were grown to ∼70% confluence in 35 mm MatTek glass bottom dishes in DMEM supplemented with 10% […], penicillin, and streptomycin. The cells were treated with AAA-PNA-TCO, TTT-PNA-TCO, TCO-CPP-RRWQW, or TCO-CPP-RLRWR (30 μM) for 3 h. Afterwards, the cells were treated with OG-Tz (50 μM) for 2 h. Hoechst 33 258 dye was used for nuclear staining. Cellular fluorescence was analyzed using confocal microscopy. Microscopy experiments were carried out using a Zeiss LSM980 confocal microscope.

[1] = tested on: GFP gene in GFP-expressing HEK293 cells; assay: CRISPR-Cas9 experiments in GFP-expressing HEK293 cells, flow cytometry; details: then suppressor 10 μM 24 h, 48 h growth, duplicate; for inactivation of sgRNA3-(U4Tz1) inside the cells (MFI of GFP): Cas9 mRNA + sgRNA3-(U4Tz1) 48 h; for inactivation of sgRNA3-(U4Tz2) inside the cells (MFI of GFP): Cas9 mRNA + sgRNA3-(U4Tz2) 48 h
Protocol: CRISPR-Cas9 experiments were carried out following the procedure reported by Yin et al. The GFP-expressing HEK293 cells were purchased from GenTarget (cat.# SC001) and cultured in DMEM, containing 10% FBS and 1X Penicillin/Streptomycin, at 37°C, 5% CO2, and 95% humidity. The cells were seeded at a concentration of 1 × 10^5 cells per well in a six-well plate 24 h prior to the experiment. The cells were transfected with Cas9 mRNA (500 ng, Thermo Fisher Scientific), GFP-targeting sgRNAs (30 nM) using lipofectamine (1.5 μL) (Invitrogen™ LMRNA003) for 72 h in Opti-MEM reduced serum media. After 72 h, Opti-MEM was replaced with fresh DMEM, and the cells were grown for an additional 48 h. The cells were treated with trypsin for 5 min, collected by centrifugation at 1000 RPM, and suspended in PBS (1 mL). GFP expression was analyzed by flow cytometry. Data from 10^6 cells were acquired using a FACS Aria III cell sorter equipped with a 488 nm/blue coherent sapphire solid-state laser, 20 mW (BD Biosciences, San Jose, CA, USA). Data analyses were carried out using FlowJo software (Ashland, OR, USA), according to the manufacturer’s instructions. Parameters, such as MFI and the percentages of specific populations, were quantified by histogram analysis.
Ability of TCO-modified CRISPR suppressors to control nuclease activity was examined as follows: GFP-expressing HEK239 cells were co-transfected with Cas9 mRNA (500 ng, Thermo Fisher Scientific), GFP-targeting sgRNAs (30 nM) using lipofectamine (1.5 μL) (Invitrogen™ LMRNA003) for 48 h. Then, AAA-PNA-TCO, TTT-PNA-TCO, TCO-CPP-RRWQW, and TCO-CPP-RLRWR (10 μM) were added to the media. After 24 h of treatment with the TCO-modified CRISPR suppressors, the media were replaced with fresh DMEM, and the cells were allowed to grow for an additional 48 h. The cells were treated with trypsin for 5 min, collected by centrifugation at 1000 RPM, and suspended in PBS (1 mL). GFP expression was analyzed by flow cytometry. Data from 10^6 cells were acquired using a FACS Aria III cell sorter equipped with a 488 nm/blue coherent sapphire solid-state laser, 20 mW (BD Biosciences, San Jose, CA, USA). Data analyses were carried out using FlowJo software (Ashland, OR, USA), according to the manufacturer’s instructions. Parameters, such as MFI and the percentages of specific populations, were quantified by histogram analysis.

VEGFA in HEK293T cells = assay: Western blot analysis of CRISPR-Cas9 experiments targeting VEGFA; details: Cas9 mRNA + sgRNA4-(U4Tz1) or sgRNA4-(U4Tz2), suppressor 10 μM added after 48 h of transfection
Protocol: Total protein lysate was harvested in RIPA buffer, and proteins separated by 10% SDS-PAGE were transferred to a PVDF membrane by using High MW protocol on Biorad Turbo wet transfer. Following transfer, membranes were blocked in 5% milk in PBST for 1 h at room temperature, washed three times in PBS with 0.1% (w/v) Tween 20 (PBS/T) for 10 min each and placed in primary antibody overnight at 4 °C. Primary antibody was rabbit VEGFA polyclonal antibody (1:2000 dilution, Cat.# 19003–1-AP, Proteintech) and α-tubulin monoclonal antibody (1:20 000 dilution, Cat.# 666031–1-Ig, Proteintech) in 5% BSA in PBS/T. Following overnight incubation, membranes were washed three times in PBS/T for 10 min each. Then membranes were incubated in a 1:10 000 dilution of goat anti-rabbit secondary (Jackson), goat-anti-mouse secondary in 5% milk, and PBS/T. Membranes were washed a final 3 times in PBS/T for 10 min each prior to being imaged on the BioRad ChemiDoc by using Thermo Scientific SuperSignal West Pico PLUS Chemiluminescent Substrate (BioRad, Cat.# 34 577).
To assess the new constructs, HEK239T cells were co-transfected with the unmodified sgRNA4, sgRNA4-(U4Tz1), or sgRNA4-(U4Tz2) and commercially available mRNA that encodes the Cas9 gene for 72 h. […] VEGFA expression was once again analyzed by Western blot.

SMILES | cellular fluorescence in the Oregon Green channel (HEK293 cells) | cell permeability (HEK293 cells) | inactivation of sgRNA3-(U4Tz1) inside the cells (MFI of GFP) [1] | inactivation of sgRNA3-(U4Tz2) inside the cells (MFI of GFP) [1] | VEGFA expression after addition of suppressor (VEGFA in HEK293T cells)
CC(C)C[C@H](NC(=O)[C@H](CCCNC(=N)N)NC(=O)COC1CC/C=C/CCC1)C(=O)N[C@@H](CCCNC(=N)N)C(=O)N[C@@H](Cc1c[nH]c2ccccc12)C(=O)N[C@@H](CCCNC(=N)N)C(=O)O (stereo partly shown) [TCO-CPP-RLRWR] (X1-RLRWR-OH) | strongest fluorescence | good cell permeability | Analogous results | Analogous results | higher VEGFA expression
N=C(N)NCCC[C@H](NC(=O)COC1CC/C=C/CCC1)C(=O)N[C@@H](CCCNC(=N)N)C(=O)N[C@@H](Cc1c[nH]c2ccccc12)C(=O)N[C@@H](CCC(N)=O)C(=O)N[C@@H](Cc1c[nH]c2ccccc12)C(=O)O (stereo partly shown) [TCO-CPP-RRWQW] (X1-RRWQW-OH) | strongest fluorescence | good cell permeability | able to inactivate | able to inactivate | higher VEGFA expression
